These results are taken from PMC10303271, “Synthesis and Receptor Binding Studies of α5 GABAAR Selective Novel Imidazodiazepines Targeted for Psychiatric and Cognitive Disorders” (Molecules, 2023).

As a reminder, the Ki is the dissociation constant of the complex between target and ligand, obtained from inhibition or displacement.

One assay addresses T1, Alpha2C (Homo sapiens, UniProt P18825).
T1 construct: purchased NIMH Psychoactive Drug Screening Program (PDSP)
T1 sequence (P18825 1-462): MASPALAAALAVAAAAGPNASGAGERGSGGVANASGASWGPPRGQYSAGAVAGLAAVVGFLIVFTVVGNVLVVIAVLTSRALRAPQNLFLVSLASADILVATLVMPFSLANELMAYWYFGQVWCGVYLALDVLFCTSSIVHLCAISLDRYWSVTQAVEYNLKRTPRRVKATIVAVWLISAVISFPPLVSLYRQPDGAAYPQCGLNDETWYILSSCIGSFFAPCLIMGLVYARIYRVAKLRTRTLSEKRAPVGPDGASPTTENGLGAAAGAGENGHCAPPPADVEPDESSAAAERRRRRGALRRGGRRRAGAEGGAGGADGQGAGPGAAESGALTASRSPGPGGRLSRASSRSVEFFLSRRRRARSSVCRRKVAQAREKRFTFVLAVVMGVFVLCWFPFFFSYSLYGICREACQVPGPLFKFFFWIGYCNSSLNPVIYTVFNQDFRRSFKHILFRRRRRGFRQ
Kind of assay: PDSP primary binding Alpha2C. The note with it: 1.5 h; primary binding, 10,000 nM; last figure of the line = mean of the 4 before it; read-out: Alpha2C, PDSP raw data, mean. The method, then: (§1) To determine if any off-target receptor-binding effects are present, all the novel ligands were sent to the National Institute of Mental Health (NIMH), Psychoactive Drug Screening Program (PDSP). The ligands were screened over a panel of 47 receptors, ion channels, and transporters to determine any other possible interactions with […]. The hERG-binding was also determined. […] No binding of the test compounds to calcium channels was observed. […] It is necessary to screen the compounds for hERG-binding during the early process of drug discovery. The unintentional binding of many drugs to hERG can cause blockade of hERG K+ channels in the heart, which can cause many side effects including cardiac arrhythmias and sudden death. […] All of the α5 imidazodiazepines were tested for hERG-binding.
(§2) The NIMH PDSP assay protocol book [https://kidbdev.med.unc.edu/databases/PDSP%20Protocols%20II%202013-03-28.pdf accessed on 23 April 2023]. describes the protocols for primary and secondary radio-ligand binding assays. These assays were carried out in a final volume of 125 µL per well in the appropriate binding buffer.
(§3) The binding of a ligand to a receptor, ion channel, or transporter was determined in the […] of 10 µM of the appropriate reference compound. […] Plates were incubated in the dark for 90 min at rt, and the reactions were stopped by vacuum filtration onto 0.3% polyethyleneimine (PEI) soaked 96-well filter mats using a 96-well Filtermateharvester. This was followed by three washes with cold PBS buffer. Radioactivity was then counted on a Microbeta counter. Nonlinear regression was used to analyze the data with N = 6 replicates.

A further assay has as its target BZP rat brain site. The assay is described as follows: PDSP binding at BZP rat brain site. The conditions noted are these: for Ki: N = 2, read-out: Binding Affinity BZR Secondary Screening Ki; for Ki / Binding Affinity BZR % Inhibition (Primary): rat brain; for Binding Affinity BZR % Inhibition (Primary): at 10,000 nM, N = 5. On the procedure:
The BZR binding affinity of the test compounds was also measured using rat brain BzR. […] The efficacy of imidazodiazepines on the benzodiazepine receptor depends on various factors, including the specific subtype of the receptor they bind to, their chemical structure, and the dose.
as §2, §3

Another assay has as its system NMDA. The assay is described as follows: PDSP primary binding NMDA. The conditions noted are these: primary binding, 10,000 nM; last figure of the line = mean of the 4 before it. On the procedure: as §1, §2, §3
The next assay addresses T2, Alpha4Beta2 (Rattus norvegicus, UniProt P09483+P12390).
T2 construct: purchased NIMH Psychoactive Drug Screening Program (PDSP)
Kind of assay: PDSP primary binding Alpha4Beta2. The note with it: primary binding, 10,000 nM; last figure of the line = mean of the 4 before it; read-out: Alpha4Beta2, PDSP raw data, mean. The method, then:
as §1, §2, §3

A further assay addresses T3, 5-HT2A (Homo sapiens, UniProt P28223).
T3 construct: purchased NIMH Psychoactive Drug Screening Program (PDSP)
The assay is described as follows: PDSP primary binding 5-HT2A. The note with it: 1.5 h; primary binding, 10,000 nM; last figure of the line = mean of the 4 before it; read-out: 5-HT2A, PDSP raw data, mean. On the procedure:
as §1, §2, §3

For another assay, the target named is T4, DOR (Homo sapiens, UniProt P41143).
T4 construct: purchased NIMH Psychoactive Drug Screening Program (PDSP)
T4 sequence (P41143 whole entry): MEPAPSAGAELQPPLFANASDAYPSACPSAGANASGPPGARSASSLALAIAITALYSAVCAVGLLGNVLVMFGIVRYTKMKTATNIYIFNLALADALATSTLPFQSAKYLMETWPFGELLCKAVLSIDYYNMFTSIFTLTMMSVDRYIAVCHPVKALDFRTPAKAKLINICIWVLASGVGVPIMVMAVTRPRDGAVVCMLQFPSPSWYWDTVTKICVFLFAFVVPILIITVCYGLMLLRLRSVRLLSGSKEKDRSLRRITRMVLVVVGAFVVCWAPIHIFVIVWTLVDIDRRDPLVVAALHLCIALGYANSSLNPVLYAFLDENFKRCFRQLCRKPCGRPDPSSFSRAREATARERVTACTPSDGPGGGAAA
The assay is described as follows: PDSP radioligand binding at DOR.
From the text: Opioid receptors are a family of inhibitory G-coupled protein receptors where opioids act as the ligand. The kappa opioid receptors (KOR), µ and δ opioid receptors (MOR and DOR), and nociception opioid receptor (NOP) fall under the family of opioids receptors. It has been reported that oxadiazole imidazodiazepines can mediate analgesic and anti-inflammatory properties mediated also by the κ opioid receptor (KOR). The binding at KOR is usually silent. The affinities of the test compounds for KOR, DOR, and MOR were determined using radioligand binding assays at a screening concentration of 10,000 nM in collaboration with the National Institute of Mental Health’s Psychoactive Drug Screening Program (PDSP), as mentioned before. Concentration-dependent experiments were conducted to determine Ki values for the compounds that exceeded more than 50% radioligand displacement in primary binding assays.
as §2, §3

Another assay addresses T5, Alpha1D (Homo sapiens, UniProt P25100).
T5 construct: purchased NIMH Psychoactive Drug Screening Program (PDSP)
T5 sequence (P25100 1-572): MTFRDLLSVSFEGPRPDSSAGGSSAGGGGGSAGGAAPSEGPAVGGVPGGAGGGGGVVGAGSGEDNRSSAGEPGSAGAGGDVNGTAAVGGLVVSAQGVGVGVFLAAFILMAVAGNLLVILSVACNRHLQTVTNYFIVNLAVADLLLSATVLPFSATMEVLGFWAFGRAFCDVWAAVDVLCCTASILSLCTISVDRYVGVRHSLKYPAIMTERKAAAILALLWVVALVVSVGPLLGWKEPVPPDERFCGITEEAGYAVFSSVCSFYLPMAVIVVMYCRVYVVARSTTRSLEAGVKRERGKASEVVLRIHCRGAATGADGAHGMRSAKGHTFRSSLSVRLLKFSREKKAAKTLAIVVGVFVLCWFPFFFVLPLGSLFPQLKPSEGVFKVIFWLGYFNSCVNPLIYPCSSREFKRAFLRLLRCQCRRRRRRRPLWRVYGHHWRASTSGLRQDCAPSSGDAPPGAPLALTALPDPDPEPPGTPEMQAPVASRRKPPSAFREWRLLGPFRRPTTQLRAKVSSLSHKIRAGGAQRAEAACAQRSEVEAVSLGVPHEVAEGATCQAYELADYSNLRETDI
The assay is described as follows: PDSP primary binding Alpha1D. The note with it: 1.5 h; primary binding, 10,000 nM; last figure of the line = mean of the 4 before it; read-out: Alpha1D, PDSP raw data, mean. On the procedure: as §1, §2, §3

In another assay the target is T6, Alpha2Beta2 (Rattus norvegicus, UniProt P12389+P12390).
T6 construct: purchased NIMH Psychoactive Drug Screening Program (PDSP)
T6 sequence (P12389 28-511): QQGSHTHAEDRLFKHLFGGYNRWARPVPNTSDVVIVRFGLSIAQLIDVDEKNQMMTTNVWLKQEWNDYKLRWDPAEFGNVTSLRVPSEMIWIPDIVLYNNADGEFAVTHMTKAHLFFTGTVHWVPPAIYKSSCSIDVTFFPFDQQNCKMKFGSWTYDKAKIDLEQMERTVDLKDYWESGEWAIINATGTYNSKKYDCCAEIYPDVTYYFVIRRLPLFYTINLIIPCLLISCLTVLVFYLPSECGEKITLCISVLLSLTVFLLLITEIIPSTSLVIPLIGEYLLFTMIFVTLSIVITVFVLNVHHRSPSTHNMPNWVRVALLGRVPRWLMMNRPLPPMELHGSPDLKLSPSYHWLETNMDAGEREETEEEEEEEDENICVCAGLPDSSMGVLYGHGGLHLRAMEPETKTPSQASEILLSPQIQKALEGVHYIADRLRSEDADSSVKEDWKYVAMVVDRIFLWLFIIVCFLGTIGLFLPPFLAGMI
T6 sequence (P12390 25-500): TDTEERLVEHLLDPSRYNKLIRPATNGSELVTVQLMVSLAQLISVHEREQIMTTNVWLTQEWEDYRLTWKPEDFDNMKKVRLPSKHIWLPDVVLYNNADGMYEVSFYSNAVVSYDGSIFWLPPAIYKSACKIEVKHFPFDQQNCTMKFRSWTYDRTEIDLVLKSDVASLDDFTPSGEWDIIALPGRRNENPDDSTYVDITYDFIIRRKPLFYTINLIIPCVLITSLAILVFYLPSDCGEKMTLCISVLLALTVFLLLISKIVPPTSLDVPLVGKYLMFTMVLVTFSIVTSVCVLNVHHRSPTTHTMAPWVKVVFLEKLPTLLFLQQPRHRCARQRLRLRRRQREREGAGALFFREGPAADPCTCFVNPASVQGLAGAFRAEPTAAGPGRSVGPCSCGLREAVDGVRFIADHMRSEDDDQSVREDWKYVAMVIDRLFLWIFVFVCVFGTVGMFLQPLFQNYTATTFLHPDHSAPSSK
Kind of assay: PDSP primary binding Alpha2Beta2. The note with it: primary binding, 10,000 nM; last figure of the line = mean of the 4 before it; read-out: Alpha2Beta2, PDSP raw data, mean. The method, then:
as §1, §2, §3

Where [1] appears, read: primary binding, 10,000 nM, last figure of the line = mean of the 4 before it, read-out: DOR, PDSP raw data, mean.
The mark [2] stands for this setting: at 10,000 nM, N = 5, [3H]-DADLE 2.69 nM, read-out: Primary Binding %DOR.

The structures appear in SMILES notation. Read-outs that look alike come from different tables or passages of the source.

T3 sequence (P28223 whole entry): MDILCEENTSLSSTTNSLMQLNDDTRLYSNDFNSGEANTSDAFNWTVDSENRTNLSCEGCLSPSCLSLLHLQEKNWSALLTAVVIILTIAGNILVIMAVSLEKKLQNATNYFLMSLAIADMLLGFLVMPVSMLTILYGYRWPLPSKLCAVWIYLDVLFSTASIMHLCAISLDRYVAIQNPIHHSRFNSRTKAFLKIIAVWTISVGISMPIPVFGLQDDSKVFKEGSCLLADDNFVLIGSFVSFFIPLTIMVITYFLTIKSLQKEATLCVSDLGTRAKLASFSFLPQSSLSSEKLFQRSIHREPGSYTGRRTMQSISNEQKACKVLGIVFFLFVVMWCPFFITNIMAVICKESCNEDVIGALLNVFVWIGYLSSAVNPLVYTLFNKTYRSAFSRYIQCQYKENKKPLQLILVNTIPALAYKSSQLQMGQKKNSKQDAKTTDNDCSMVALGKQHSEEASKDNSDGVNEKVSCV
T2 sequence (P09483 31-630): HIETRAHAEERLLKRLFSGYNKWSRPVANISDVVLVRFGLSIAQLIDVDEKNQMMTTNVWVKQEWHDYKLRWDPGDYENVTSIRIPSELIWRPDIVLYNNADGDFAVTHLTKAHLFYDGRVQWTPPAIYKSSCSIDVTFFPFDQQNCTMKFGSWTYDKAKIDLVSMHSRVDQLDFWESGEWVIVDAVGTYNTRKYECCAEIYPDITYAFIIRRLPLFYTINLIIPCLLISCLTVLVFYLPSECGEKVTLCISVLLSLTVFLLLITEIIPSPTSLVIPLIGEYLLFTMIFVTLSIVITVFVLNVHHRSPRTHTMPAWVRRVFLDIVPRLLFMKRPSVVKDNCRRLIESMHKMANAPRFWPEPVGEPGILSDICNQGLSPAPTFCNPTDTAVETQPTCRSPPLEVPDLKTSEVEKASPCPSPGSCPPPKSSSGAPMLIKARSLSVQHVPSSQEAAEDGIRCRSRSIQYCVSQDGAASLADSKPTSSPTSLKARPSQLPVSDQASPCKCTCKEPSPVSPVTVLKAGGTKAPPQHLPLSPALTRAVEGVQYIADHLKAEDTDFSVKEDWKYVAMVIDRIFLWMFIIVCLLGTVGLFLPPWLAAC
T2 sequence (P12390 25-500): as the sequence (P12390 25-500) above

Take `CCc1noc(-c2ncn3c2[C@@H](C)N=C(c2ccccc2F)c2cc(C4CC4)ccc2-3)n1` [Compound 46, (R)-5-(8-Cyclopropyl-6-(2′-fluorophenyl)-4-methyl-4H-benzo[f]imidazo[1,5-a][1,4]diazepin-3-yl)-3-ethyl-1,2,4-oxadiazole]: the inhibition at 10 µM on Alpha2C was 11.9%; on Alpha4Beta2, 4.59%; at 5-HT2A, 23.6%; on DOR (setting [1]), 67.3%; at Alpha1D, 34.9%; at Alpha2Beta2, -2.72%. Moreover, the Ki at BZP rat brain site was determined as 3790 ± 632 nM. Moreover, the “Binding Affinity BZR % Inhibition (Primary)” value in the assay on BZP rat brain site is 65.25 ± 5.33%. The “NMDA, PDSP raw data, mean” value in the assay with NMDA was determined as 66.04%.
Take `CCc1noc(-c2ncn3c2CN=C(c2ccccc2F)c2cc(C4CC4)ccc2-3)n1` [Compound 44, 5-(8-Cyclopropyl-6-(2′-fluorophenyl)-4H-benzo[f]imidazo[1,5-a][1,4]diazepin-3-yl)-3-ethyl-1,2,4-oxadiazole]: the inhibition at 10 µM at Alpha2C is 15.7%; on Alpha4Beta2, -1.95%; on 5-HT2A, 21.2%; at DOR (setting [2]) it was 81.3 ± 4.76%; at DOR (setting [1]), 81.3%; at Alpha1D it was 1.28%. In addition, the inhibition at 10 µM on Alpha2Beta2 is -6.67%. Moreover, the Ki at BZP rat brain site worked out at 194 ± 62.7 nM. The “Binding Affinity BZR % Inhibition (Primary)” value in the assay on BZP rat brain site amounted to 96.52 ± 2.57%. Further, in the assay with NMDA, the “NMDA, PDSP raw data, mean” value is reported as 20.03%.
On to `C#Cc1ccc2c(c1)C(c1ccccc1Cl)=N[C@H](C)c1c(C(=O)N(C)CC)ncn1-2` [Compound 29], for which the inhibition at 10 µM on Alpha2C was 19.9%; at Alpha4Beta2, -1.16%; at 5-HT2A it was -3.89%; at DOR (setting [2]), 39.5 ± 3.21%; at DOR (setting [1]), 39.5%; on Alpha1D it was -11.9%. Further, the inhibition at 10 µM on Alpha2Beta2 is -2.89%. Besides, the inhibitory constant (Ki) on BZP rat brain site is 394 ± 40.2 nM. The “Binding Affinity BZR % Inhibition (Primary)” value in the assay on BZP rat brain site was found to be 87.49 ± 2.75%. The “NMDA, PDSP raw data, mean” value in the assay with NMDA is 98.03%.
As for `CCc1noc(-c2ncn3c2[C@@H](C)N=C(c2ccccc2F)c2cc(-c4ccccc4)ccc2-3)n1` [Compound 35, (R)-3-Ethyl-5-(6-(2′-fluorophenyl)-4-methyl-8-phenyl-4H-benzo[f]imidazo[1,5-a][1,4]diazepin-3-yl)-1,2,4-oxadiazole], the inhibition at 10 µM at Alpha2C is 31.6%; at Alpha4Beta2, 0.7%; at 5-HT2A it was 32.3%; at DOR (setting [2]), 52.7 ± 4.38%; at DOR (setting [1]) it was 52.7%; on Alpha1D, -0.4%. The inhibition at 10 µM at Alpha2Beta2 is 4.18%. In the assay on BZP rat brain site, the “Binding Affinity BZR % Inhibition (Primary)” value is 19.91 ± 7.21%. For the same compound, the “NMDA, PDSP raw data, mean” value in the assay with NMDA turned out to be 37.76%.
In the case of `C#Cc1ccc2c(c1)C(c1ccccn1)=N[C@@H](C)c1c(C(=O)N(C)C)ncn1-2` [Compound 31, (S)-8-Ethynyl-N,N,4-trimethyl-6-(pyridin-2′-yl)-4H-benzo[f]imidazo[1,5-a][1,4]diazepine-3-carboxamide], the inhibition at 10 µM at Alpha2C is 7.52%; at Alpha4Beta2 it was -0.84%; at 5-HT2A it was -13.1%; on DOR (setting [2]), 6.18 ± 11.2%; at DOR (setting [1]), 6.18%; on Alpha1D it was -6.09%. Moreover, the inhibition at 10 µM at Alpha2Beta2 is -2.25%. The inhibition constant (Ki) on BZP rat brain site was found to be 838 ± 107 nM. The “Binding Affinity BZR % Inhibition (Primary)” value with BZP rat brain site is on record as 83.57 ± 1.57%. In addition, the “NMDA, PDSP raw data, mean” value in the assay with NMDA came to 17.3%.
Regarding `CC(C)c1noc(-c2ncn3c2[C@@H](C)N=C(c2ccccc2F)c2cc(Cl)ccc2-3)n1` [Compound 37, (R)-5-(8-Chloro-6-(2′-fluorophenyl)-4-methyl-4H-benzo[f]imidazo[1,5-a][1,4]diazepin-3-yl)-3-isopropyl-1,2,4-oxadiazole], the inhibition at 10 µM at Alpha2C stood at 2.74%; on Alpha4Beta2 it was 6.16%; at 5-HT2A it was 14.1%; on DOR (setting [2]) it was 31.9 ± 9.58%; on DOR (setting [1]) it was 31.9%; on Alpha1D, 4.09%. Moreover, at Alpha2Beta2, the inhibition at 10 µM turned out to be 3.29%. Further, the “BZP Rat Brain Site, PDSP raw data, mean” value in the assay on BZP rat brain site (primary binding, 10,000 nM, last figure of the line = mean of the 4 before it) was found to be 74.07%. Besides, the “NMDA, PDSP raw data, mean” value in the assay with NMDA amounted to 54.13%.
On to `C#Cc1ccc2c(c1)C(c1ccccn1)=N[C@@H](C)c1c(C(=O)NC)ncn1-2` [Compound 23, (S)-8-Ethynyl-N,4-dimethyl-6-(pyridin-2′-yl)-4H-benzo[f]imidazo[1,5-a][1,4]diazepine-3-carboxamide], for which the inhibition at 10 µM is -0.12% at Alpha2C; -4.27% at Alpha4Beta2; -0.6% at 5-HT2A; 14.9 ± 8.84% at DOR (setting [2]); 14.9% on DOR (setting [1]); -6.54% on Alpha1D. The inhibition at 10 µM on Alpha2Beta2 was -3.67%. At BZP rat brain site, the Ki turned out to be 1300 ± 394 nM. In the assay with BZP rat brain site, the “Binding Affinity BZR % Inhibition (Primary)” value came out at 52.97 ± 6.26%. In addition, the “NMDA, PDSP raw data, mean” value with NMDA amounted to 89.17%.
